Assay results taken from patent US11999964B2, “Synthetic mammalian signaling circuits for robust cell population control” (California Institute of Technology, priority 2020, dated 2024).

Test system: cheaters from the negative feedback condition
Assay: AP1903 killing of cheaters from the negative feedback condition
Type: cell-based, Hamster
Details: 50 nM AP1903, two days, even in the presence of NAA
Description: FIGS. 12A-12C depict non-limiting exemplary data showing the paradoxical circuit allows mutationally robust population control. (FIG. 12A) Cell lines evolved under paradoxical conditions are phenotypically different from cheaters evolved under negative feedback. Each dot represents one culture. Cells evolved under the negative feedback conditions form a tight cluster, which is fitted with a 2-D gaussian to show the 95 percentile (orange dashed ellipse). […] (FIG. 12B) Under paradoxical, but not negative feedback, conditions, mutations that reduce auxin sensing lead to apoptosis in cheaters (red inhibitory arrow), preventing unregulated growth and mutational escape. […] Cells were incubated with different levels of NAA for 6 hours, and then 50 nM of AP1903 was added (except in controls) for another two days. Confluencies were measured and normalized to the no AP1903 control (n=3).

For `CC[C@H](C(=O)N1CCCC[C@H]1C(=O)O[C@H](CCc1ccc(OC)c(OC)c1)c1cccc(OCC(=O)NCCNC(=O)COc2cccc([C@@H](CCc3ccc(OC)c(OC)c3)OC(=O)[C@@H]3CCCCN3C(=O)[C@@H](CC)c3cc(OC)c(OC)c(OC)c3)c2)c1)c1cc(OC)c(OC)c(OC)c1` [AP1903], the “Effect of iCasp9 activation by AP1903 on cheaters” value was “kills cheaters”.
